Measured values taken from US10684290B2, “LKB1 related diagnostics and treatments of cancer” (Dignity Health, priority 2014, dated 2020).

What was measured:
H838-KDLKB1 cells = assay: Clonogenic survival of H838-LKB1 and H838-KDLKB1 cells; assay type: cell-based, human; details: for Clonogenic cell survival of H838-KDLKB1 cells: 24 h, 2DG 10 mM, Tm 1.25 μg/ml, BFA 30 ng/ml
Procedure: (§1) Clonogenic survival assay were performed in 6 well dishes. Briefly, 200 of indicated cells were plated per well and allowed to attach overnight. Were indicated cells were pre-treated with 125 ng/ml of cyclohexamide (CHX) for one hour. Indicated drugs were diluted fresh into media and cells were treated for 24 h, at which time the drug containing media was removed and replaced with fresh media. After 14 days, cells were fixed in 10% Methanol/10% Acetic Acid and stained with 0.5% crystal violet. After washing in ddH2O, plates were allowed to dry and colonies of 50 cells or more were counted. The surviving fraction was calculated according to methods described by Franken et al. [Clonogenic assay of cells in vitro, NAT. PROT. 1 (5) (2006) 2315-2319].

[1] = tested on: H23-LKB1 and H23-KDLKB1 cells; assay: Caspase 3/7 activity assay; assay type: cell-based, human; details: 5 ug/ml, 24 hours
Procedure: H23-LKB1 and H23-KDLKB1 cell were plated as described previously and treated for 24 hours with tunicamycin (5 ug/ml) or vehicle (DMSO). Activity of Caspases 3 and 7 were determined using a Promega Caspase-Glo 3/7 kit and data analyzed as described previously.

[2] = Chronic dosing tolerability in vivo
[3] = tested on: A427-KDLKB1 and A427-LKB1 cells; assay: ATP measurement/cell viability (CellTiter-Glo), A427; assay type: cell-based, human; details: 48 h; 2DG 10 mM, Tm 1.25 μg/ml, BFA 30 ng/ml; p<0.005
Procedure: (§2) 500 H838 or A427 cells stably expressing either LKB1 or KDLKB1 were plated in 96 well plates. The following day, cells were dosed with the indicated treatments for 48 h. Cellular ATP levels were assessed using the CellTiter-Glo Luminescent Cell Viability Assay substrate (Promega) according to manufacturer's instructions. Luminescence was read using the DTX 880 Multimode Detector. Cellular ATP/cell viability was calculated relative to vehicle treated control.

[4] = tested on: H23-KDLKB1 and H23-LKB1 cells; assay: Clonogenic survival of H23-LKB1 and H23-KDLKB1 cells; assay type: cell-based, human; details: 24 h treatment, colonies after 14 days
Procedure: as §1, with “300-500” for “200 of indicated”, “Drugs” for “Were indicated cells were pre-treated with 125 ng/ml of cyclohexamide (CHX) for one hour. Indicated drugs”, “hours. Drug” for “h, at which time the drug”, “Franken,” for “Franken”, “al.” for “al. [Clonogenic assay of cells in vitro, NAT. PROT. 1 (5) (2006) 2315-2319].”
as §1

[5] = tested on: H838-KDLKB1 and H838-LKB1 cells; assay: ATP measurement/cell viability (CellTiter-Glo), H838; assay type: cell-based, human; details: 48 h; 2DG 10 mM, Tm 1.25 μg/ml, BFA 30 ng/ml; p<0.005
Procedure: as §2

[6] = tested on: H838-KDLKB1 and H838-LKB1 cells; assay: Immunoblot of ER stress markers in H838-LKB1 and H838-KDLKB1 cells; assay type: cell-based, human; details: 12 h; 2DG 10 mM, Tm 1.25 ug/ml, BFA 30 ng/ml
Procedure: (§3) Cells were washed once with ice-cold PBS and incubated on ice for 30 min with a lysis buffer containing 10 mM Tris-HCl, 150 mM NaCl, 0.1% SDS and 1% IGEPAL (Sigma) to which a protease inhibitor cocktail (Sigma) and two phosphatase cocktails I and II (Sigma) were added immediately before use. Lysates were transferred to tubes and insoluble material was pelleted by centrifugation. For immunoblotting, 50-100 μg of total protein lysates were separated by SDS-PAGE and transferred to nitrocellulose. Blots were blocked in 5% milk/Tris buffered saline/0.1% TWEEN® 20 (polyoxyethylenesorbitan monolaurate) (TBST) and primary antibodies were diluted in 5% Bovine Serum Albumin (Sigma)/TBST and incubated overnight at 4° C. Blots were developed with ECL plus (GE) and visualized on a Kodak Image station.

[7] = tested on: H838-KDLKB1 and H838-LKB1 cells; assay: Flow cytometry of ROS levels (CellROX staining); assay type: cell-based, human; details: CellROX FACS, 12 h; 2DG 10 mM, Tm 1.25 μg/ml, BFA 30 ng/ml; baseline difference 1.4-fold
Procedure: To analyze levels of reactive oxygen species (ROS), 1×10^6 H838-KDLKB1 and H838-LKB1 cells were plated and treated with the indicated drugs. Cells were then stained with 0.5 1M CellRox™ for 30 min at 37° C., collected by trypsinization and washed with PBS. Following fixation with 2% Paraformaldehyde/PBS for 20 min, cells were brought to a final volume of 500 ll in PBS. CellRox™ staining of ROS was assessed using the Accuri C6 Flow Cytometer (BD Biosciences, San Jose, Calif., USA) with the threshold set at 80,000. A total of 30,000 events were collected per sample and ROS staining intensity determined using FCS Express 4 Flow Cytometer software. Background events were gated out using unstained control. Histogram plots were overlaid and histogram subtraction was performed by subtracting the integral of the stained control from the treated sample.

[8] = tested on: H23-KDLKB1 and H23-LKB1 NSCLC cells; assay: Immunoblot of BiP and CHOP in H23-LKB1 and H23-KDLKB1 cells; assay type: cell-based, human; details: 18 h; or bortezomib (40 nM)
Procedure: as §3

| Molecule | Clonogenic cell survival of H838-KDLKB1 cells (H838-KDLKB1 cells) | Activity of Caspases 3 and 7 (apoptosis) in H23-KDLKB1 versus H23-LKB1 [1] | Tolerability of chronic dosing [2] | Cellular ATP in A427-KDLKB1 compared to A427 re-expressing LKB1 [3] | Clonogenic survival / cytotoxicity in H23-KDLKB1 compared to H23-LKB1 [4] | Cellular ATP in H838-KDLKB1 compared to H838 re-expressing LKB1 [5] | Phosphorylated eIF2a in H838-KDLKB1 compared to H838-LKB1 cells [6] | ROS levels in H838-KDLKB1, increase in intensity over H838-LKB1 [7] | Effect of added CHX on 2DG, BFA and Tm cytotoxicity in H838-KDLKB1 cells (H838-KDLKB1 cells; 125 ng/ml CHX pre-treatment one hour, compared to 2DG, BFA or Tm alone, p<0.05) | BiP expression in H23-KDLKB1 compared to H23 cells with reconstituted LKB1 [8] | CHOP expression in H23-KDLKB1 compared to H23 cells with reconstituted LKB1 [8] |
| --- | --- | --- | --- | --- | --- | --- | --- | --- | --- | --- | --- |
| tunicamycin [Tm] | reduced cell survival | increased levels of Caspase activity | poorly tolerated | reduced ATP | increased cytotoxicity | reduced ATP | increased levels of phosphorylated eIF2a | 1.67 fold | – | – | – |
| C[C@@H]1C[C@@H]([C@H](O)CC2CC(=O)NC(=O)C2)C(=O)[C@@H](C)C1 [CHX, Cycloheximide] | – | – | – | – | – | – | – | – | ameliorate 2DG, BFA and Tm cytotoxicity | – | – |
| C[C@H]1CCC/C=C/[C@@H]2C[C@H](O)C[C@H]2[C@H](O)/C=C/C(=O)O1 [BFA, brefeldin A] | reduced cell survival | – | – | reduced ATP | – | reduced ATP | increased levels of phosphorylated eIF2a | 1.2 fold | – | – | – |
| Cc1ccc(-c2cc(C(F)(F)F)nn2-c2ccc(S(N)(=O)=O)cc2)cc1 [celecoxib] | – | – | – | – | reduced the survival of H23-KDLKB1 cells in a dose dependent manner | – | – | – | – | 1.6 fold decrease | 1.3 fold decrease |
